Assay [1] relates to phospho-ERK in melanoma derived WM-266-4 cells. Kind of assay: Mechanistic cellular assay for Raf kinase activity (phospho-ERK, Bio-Plex). Format: cell-based. The conditions noted are these: Homo sapiens, treated 1-2 hr at 37° C., serum free medium, read-out: pERK EC50. The method in brief: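 WM-266-4 melanoma cells (wild-type/V600D BRaf) grown overnight in 10% FBS RPMI, then treated 1–2 h at 37 °C in serum-free RPMI with eight 3-fold dilutions of compound (from 5 mM DMSO stock, 1000× dilution). Lysate phospho-ERK1,2 quantified by Bio-Plex bead immunoassay.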

Another assay deals with V599E Raf (Homo sapiens, UniProt P15056, V600E). Kind of assay: Biochemical FRET assay, mutant Raf (phosphorylation of MEK). As to conditions: 0.125 nM V599E Raf, 100 nM biotin-MEK, 25 μM ATP, read-out: Raf (mut) inhibition. In outline: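 V599E Raf (0.125 nM) preincubated 20 min with inhibitor and 100 nM biotin-MEK in HEPES pH 7.4 with Mg2+/Mn2+, then reacted with 25 μM ATP for 60 min at room temperature. EDTA-stopped; phospho-MEK1/2 (Ser217/221) detected by Eu/APC TR-FRET after 90 min.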
V599E Raf, sequence (P15056 whole entry V600E): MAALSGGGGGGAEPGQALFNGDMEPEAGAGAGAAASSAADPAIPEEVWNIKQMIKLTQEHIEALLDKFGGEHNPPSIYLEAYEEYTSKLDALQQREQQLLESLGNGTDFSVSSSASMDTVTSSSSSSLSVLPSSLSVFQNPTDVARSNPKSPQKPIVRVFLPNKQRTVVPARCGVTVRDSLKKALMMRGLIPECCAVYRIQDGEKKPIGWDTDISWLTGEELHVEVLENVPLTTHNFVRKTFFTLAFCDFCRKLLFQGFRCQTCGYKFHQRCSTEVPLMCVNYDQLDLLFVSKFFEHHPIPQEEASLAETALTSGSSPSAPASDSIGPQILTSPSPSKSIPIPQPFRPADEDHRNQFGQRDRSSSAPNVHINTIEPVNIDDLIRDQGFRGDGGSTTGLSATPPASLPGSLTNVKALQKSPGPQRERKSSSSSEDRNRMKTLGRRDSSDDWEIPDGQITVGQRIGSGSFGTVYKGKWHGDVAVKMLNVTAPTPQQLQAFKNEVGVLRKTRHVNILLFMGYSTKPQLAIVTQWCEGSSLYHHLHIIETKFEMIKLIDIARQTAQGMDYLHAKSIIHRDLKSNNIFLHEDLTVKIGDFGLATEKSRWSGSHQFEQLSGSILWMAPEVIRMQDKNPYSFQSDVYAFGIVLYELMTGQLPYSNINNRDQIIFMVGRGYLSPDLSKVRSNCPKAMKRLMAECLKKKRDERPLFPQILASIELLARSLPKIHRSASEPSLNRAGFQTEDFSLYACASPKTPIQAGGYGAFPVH

Some results are limits rather than exact numbers.

As a reminder, the EC50 is the concentration that produces a half-maximal response.

As to `CC(NC(=O)c1cc2c(cn1)ncn2C)c1cnc(Nc2cc(C(=O)O)cc(C(C)(C)C)c2)s1` (centres unmarked) [Example 352], in assay [1], the 50% effective concentration (EC50) was 1000 to 10000 nM. Besides, the IC50 at V599E Raf was in the range of 100 to 1000 nM.

As for `C[C@@H](NC(=O)c1cccc(N)n1)c1ncc(C(=O)Nc2cc(C(F)(F)F)c(Cl)cn2)s1` [Example 92], the EC50 in assay [1] was in the range of 1000 to 10000 nM. Further, the IC50 at V599E Raf is at most 100 nM.

On to `CC(NC(=O)c1cnn2ccccc12)c1ncc(C(=O)Nc2cc(C(F)(F)F)c(Cl)cn2)s1` (centres unmarked) [Example 223], for which the half-maximal effective concentration (EC50) in assay [1] was at most 100 nM. Besides, on V599E Raf, the IC50 is 100 to 1000 nM.

With `C[C@@H](NC(=O)c1cnc(CN2CCOCC2)n1C)c1ncc(C(=O)Nc2cc(C(F)(F)F)c(Cl)cn2)s1` [Example 156], the EC50 in assay [1] was 1000 to 10000 nM. Also, at V599E Raf, the IC50 is at most 100 nM.

As for `C[C@@H](NC(=O)c1cccc(N2CCOCC2)n1)c1ncc(C(=O)Nc2cc(C(F)(F)F)c(Cl)cn2)s1` [Example 90], the EC50 in assay [1] is 100 to 1000 nM. Moreover, the IC50 at V599E Raf was at most 100 nM.

With `CC(NC(=O)c1cnn2cccnc12)c1cnc(Nc2ccc(C(F)(F)F)cc2)s1` (centres unmarked) [Example 225], the concentration for a half-maximal effect (EC50) in assay [1] was in the range of 1000 to 10000 nM. Moreover, the IC50 on V599E Raf was at most 100 nM.

Take `CC(NC(=O)c1cc2c(cn1)nc(N)n2C)c1cnc(Nc2cnc(C(C)(C)C)nc2)s1` (centres unmarked) [Example 287]: the concentration for a half-maximal effect (EC50) in assay [1] was at most 100 nM. For the same compound, the IC50 on V599E Raf was at most 100 nM.

As to `CC(NC(=O)c1cnc2ncccn12)c1cnc(Nc2ccc(C(F)(F)F)cc2)s1` (centres unmarked) [Example 310], the concentration giving a half-maximal response (EC50) in assay [1] is 1000 to 10000 nM. The IC50 at V599E Raf is at most 100 nM.

For `CC(NC(=O)c1ccc2ncn(C)c2c1)c1cnc(Nc2ccc(C(F)(F)F)cc2)s1` (centres unmarked) [Example 76], the EC50 in assay [1] was in the range of 1000 to 10000 nM. The IC50 at V599E Raf is at most 100 nM.

For `Cc1ncsc1C(=O)N[C@H](C)c1ncc(C(=O)Nc2cc(C(F)(F)F)c(Cl)cn2)s1` [Example 99], the concentration for a half-maximal effect (EC50) in assay [1] lay in the range of 1000 to 10000 nM. The IC50 at V599E Raf is at most 100 nM.

On to `C[C@@H](NC(=O)c1cccc(Br)n1)c1ncc(C(=O)Nc2cc(C(F)(F)F)c(Cl)cn2)s1` [Example 91], for which, in assay [1], the EC50 lay in the range of 1000 to 10000 nM. Also, the IC50 at V599E Raf lay within 100 to 1000 nM.

Regarding `C[C@@H](NC(=O)c1cc2c(cn1)ncn2C1CCC1)c1cnc(Nc2ccc(C(F)(F)F)cc2)cn1` (single isomer, unassigned) [Example 188], in assay [1], the 50% effective concentration (EC50) was at most 100 nM. For the same compound, the IC50 at V599E Raf was at most 100 nM.

Turning to `CC(NC(=O)c1cc2c(cn1)ncn2C)c1cnc(Nc2ccc(C(F)(F)F)cc2Cl)s1` (centres unmarked) [Example 245], the 50% effective concentration (EC50) in assay [1] was at most 100 nM. Moreover, the IC50 at V599E Raf was at most 100 nM.

`C[C@@H](NC(=O)c1cnn(C)c1N)c1ncc(C(=O)Nc2cc(C(F)(F)F)c(Cl)cn2)s1` [Example 127]: the EC50 in assay [1] was at most 100 nM. In addition, the IC50 on V599E Raf was at most 100 nM.

`CC(NC(=O)c1cnn(C)c1)c1cnc(Nc2ccc(C(F)(F)F)cc2)s1` (centres unmarked) [Example 109]: the concentration giving a half-maximal response (EC50) in assay [1] was in the range of 1000 to 10000 nM. The IC50 at V599E Raf was at most 100 nM.

With `C[C@@H](NC(=O)c1cccc(N2CCCCC2)n1)c1ncc(C(=O)Nc2cc(C(F)(F)F)c(Cl)cn2)s1` [Example 94], the EC50 in assay [1] lay in the range of 1000 to 10000 nM. Besides, at V599E Raf, the IC50 lay within 100 to 1000 nM.

With `CC(C)n1cc(C(=O)N[C@H](C)c2ncc(C(=O)Nc3cc(C(F)(F)F)c(Cl)cn3)s2)cn1` [Example 134], in assay [1], the EC50 lay within 100 to 1000 nM. Further, the IC50 on V599E Raf lay within 100 to 1000 nM.

For `CC(NC(=O)c1cc2c(cn1)ncn2C1CN(C(C)C)C1)c1cnc(Nc2ccc(C(F)(F)F)cc2)cn1` (centres unmarked) [Example 181], the EC50 in assay [1] was in the range of 100 to 1000 nM. In addition, the IC50 on V599E Raf is at most 100 nM.

For `C[C@@H](NC(=O)c1cnn(C)c1CNCCF)c1ncc(C(=O)Nc2cc(C(F)(F)F)c(Cl)cn2)s1` [Example 131], in assay [1], the EC50 was in the range of 100 to 1000 nM. Also, on V599E Raf, the IC50 was 100 to 1000 nM.

For the compound `CC(NC(=O)c1cn2c(Cl)cnc2cn1)c1cnc(Nc2ccc(C(F)(F)F)cc2)s1` (centres unmarked) [Example 299], the EC50 in assay [1] lay within 100 to 1000 nM. In addition, at V599E Raf, the IC50 was at most 100 nM.

In the case of `CC(NC(=O)c1cc2c(cn1)nc(N)n2C)c1cnc(Nc2ccc(C(F)(F)F)cc2)s1` (centres unmarked) [Example 199], the concentration giving a half-maximal response (EC50) in assay [1] is at most 100 nM. Also, the IC50 on V599E Raf is at most 100 nM.

`CC(NC(=O)c1cn2c(C(F)(F)F)cnc2cn1)c1cnc(Nc2ccc(C(F)(F)F)cc2)s1` (centres unmarked) [Example 300]: the half-maximal effective concentration (EC50) in assay [1] is 1000 to 10000 nM. In addition, the IC50 on V599E Raf is at most 100 nM.

With `C[C@@H](NC(=O)c1cnc2n1CCN(C)C2)c1ncc(C(=O)Nc2cc(C(F)(F)F)c(Cl)cn2)s1` [Example 317], the EC50 in assay [1] is 1000 to 10000 nM. Also, the IC50 at V599E Raf lay within 100 to 1000 nM.

As to `CC(NC(=O)c1cc2cn(C)nc2cn1)c1cnc(Nc2ccc(C(F)(F)F)cc2)s1` (centres unmarked) [Example 203], the concentration for a half-maximal effect (EC50) in assay [1] is at most 100 nM. In addition, the IC50 on V599E Raf is at most 100 nM.

On to `CCc1nc(C(C)(C)C)ncc1Nc1ncc(C(C)NC(=O)c2cc3c(cn2)ncn3C)s1` (centres unmarked) [Example 295], for which, in assay [1], the EC50 is at most 100 nM. The IC50 at V599E Raf was 100 to 1000 nM.

In the case of `CC(NC(=O)c1cc2nc[nH]c2cn1)c1ncc(C(=O)Nc2cc(C(F)(F)F)c(Cl)cn2)s1` (centres unmarked) [Example 77], in assay [1], the EC50 was at most 100 nM. Moreover, the IC50 on V599E Raf is at most 100 nM.

Regarding `Cc1ncoc1C(=O)N[C@H](C)c1ncc(C(=O)Nc2cc(C(F)(F)F)c(Cl)cn2)s1` [Example 103], the EC50 in assay [1] lay within 1000 to 10000 nM. Also, the IC50 on V599E Raf was at most 100 nM.

Turning to `CC(=O)N1CC(n2cnc3cnc(C(=O)N[C@H](C)c4cnc(Nc5ccc(C(F)(F)F)cc5)s4)cc32)C1` [Example 347], in assay [1], the EC50 is 100 to 1000 nM. Besides, the IC50 on V599E Raf is at most 100 nM.

These data come from US20120040951A1, “HETEROARYL COMPOUNDS USEFUL AS RAF KINASE INHIBITORS” (priority 2008, published 2012).
